The source of these data is PubChem BioAssay (NCI).

Among the test systems are P388 leukemia; SNB-78 CNS; SN12K1 renal; HOP-18 NSCLC; P388/ADR leukemia; M19-MEL melanoma; KM20L2 colon; DLD-1 colon; RXF-631 renal; LXFL 529 NSCLC.
What all share (experiment): NCI tumour cell line growth inhibition, 48 h

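Exposure lasted 48 hours, with cells grown in 96-well plates and compounds tested at five concentrations. GI50 marks 50% less growth. TGI: concentration producing complete growth inhibition.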

In the case of `CC1[C@@]2(O[C@@H]3C=C4C5CCC6Cc7nc8c(nc7C[C@@]6(C)C5C[C@H](O)[C@@]4(C)[C@]13O)CC1CCc3c(cc4c5c3C(O)C[C@H]5[C@@H](C)C3(O4)OC(C)(C)CC3O)[C@]1(C)C8)O[C@@](C)(CO)C[C@@H]2O` (some centres undefined), the TGI in the experiment with P388 leukemia was over 3.72 µM; in the experiment on SNB-78 CNS, 2.33 µM; with SN12K1 renal it was 0.937 µM; in the experiment with HOP-18 NSCLC, over 3.72 µM; with P388/ADR leukemia, over 3.72 µM; in the experiment on M19-MEL melanoma it was over 3.72 µM. For the same compound, the TGI in the experiment with KM20L2 colon and in the experiment on DLD-1 colon was over 3.72 µM in each case.

Turning to `CN(C)CCNC(=O)c1cccc2c1C(=O)c1ccccc1C2=O`, the TGI in the experiment with P388 leukemia is 43.9 µM; with SNB-78 CNS, over 86.6 µM; in the experiment on SN12K1 renal, over 100 µM; in the experiment on HOP-18 NSCLC, over 100 µM; with P388/ADR leukemia it was 48.4 µM; in the experiment with M19-MEL melanoma it was 41.7 µM. The values for the TGI in the experiment with KM20L2 colon and in the experiment with DLD-1 colon were 77 µM and over 77.6 µM, respectively.

`COc1ccc2[nH]c3ccc4cc[n+](CCN5CCC(C6CCN(CC[n+]7ccc8ccc9[nH]c%10ccc(OC)cc%10c9c8c7)CC6)CC5)cc4c3c2c1`: the TGI with P388 leukemia was over 100 µM; in the experiment on SNB-78 CNS, 66.4 µM; in the experiment with SN12K1 renal, over 52 µM; with HOP-18 NSCLC it was 15.1 µM; in the experiment with P388/ADR leukemia, over 100 µM; with M19-MEL melanoma it was 16.1 µM. The TGI in the experiment on KM20L2 colon and with DLD-1 colon was over 100 µM each time.

With `ClCCCN1CCN(CCCl)CC1`, the TGI in the experiment on P388 leukemia is over 840 µM; with SNB-78 CNS it was over 567 µM; with SN12K1 renal, 575 µM; in the experiment with HOP-18 NSCLC it was over 1000 µM; in the experiment with P388/ADR leukemia, over 529 µM; in the experiment with M19-MEL melanoma it was 773 µM. Moreover, the TGI in the experiment with KM20L2 colon was over 1000 µM; in the experiment on DLD-1 colon, 319 µM.

For `Nc1nnc(N)n1N`, the TGI in the experiment with RXF-631 renal, with SNB-78 CNS, with LXFL 529 NSCLC, in the experiment with M19-MEL melanoma and in the experiment with DLD-1 colon was over 100 µM in each case.

With `CCC1(O)C(=O)OCc2c1cc1n(c2=O)Cc2cc3cc4c(cc3nc2-1)OCO4` (centres undefined), the TGI in the experiment with P388 leukemia was 0.117 µM; with RXF-631 renal, 1.13 µM; in the experiment with SNB-78 CNS, over 57.8 µM; with SN12K1 renal, 0.331 µM; in the experiment with HOP-18 NSCLC it was 0.824 µM; in the experiment with P388/ADR leukemia it was under 0.0172 µM. In addition, the TGI in the experiment with LXFL 529 NSCLC was 2.27 µM; with M19-MEL melanoma, 0.205 µM; with KM20L2 colon, 0.738 µM; in the experiment on DLD-1 colon, over 60.3 µM. For the same compound, in the experiment on LXFL 529 NSCLC, the GI50 was 0.128 µM.

In the case of `COc1cc(/C=C/c2ccc(OC)c(OC)c2)oc(=O)c1`, the TGI in the experiment with P388 leukemia, in the experiment on SNB-78 CNS, in the experiment with SN12K1 renal, with HOP-18 NSCLC, in the experiment on P388/ADR leukemia and with M19-MEL melanoma was over 250 µM each time. Also, the TGI in the experiment with KM20L2 colon and with DLD-1 colon was over 250 µM each time.

For `COc1ccc(C2CC(c3sc(Nc4ccc(C)cc4)nc3C)=NN2)cc1` (centres undefined), the TGI in the experiment on P388 leukemia was 20.3 µM; in the experiment with SNB-78 CNS, 52 µM; in the experiment on SN12K1 renal, 28.9 µM; in the experiment with HOP-18 NSCLC, 35.4 µM; in the experiment on P388/ADR leukemia it was 24.3 µM; in the experiment on M19-MEL melanoma, over 59 µM. The TGI amounted to 31.3 µM with KM20L2 colon and 35.7 µM in the experiment with DLD-1 colon.

For the compound `Cc1ccc(C(=O)Nc2ccc(S(=O)(=O)O)c3cc(S(=O)(=O)O)cc(S(=O)(=O)O)c23)cc1NC(=O)c1cccc(NC(=O)Nc2cccc(C(=O)Nc3cc(C(=O)Nc4ccc(S(=O)(=O)O)c5cc(S(=O)(=O)O)cc(S(=O)(=O)O)c45)ccc3C)c2)c1`, the TGI with SNB-78 CNS was over 100 µM; with HOP-18 NSCLC, over 93.3 µM; in the experiment on LXFL 529 NSCLC it was over 100 µM; in the experiment with M19-MEL melanoma it was over 100 µM; with KM20L2 colon it was over 100 µM; in the experiment with DLD-1 colon it was over 100 µM.

For the compound `O=[N+]([O-])c1ccc(C[P+]2(c3ccccc3)CCCCC2)cc1` (tested in a mixture with another compound), the TGI with RXF-631 renal is over 100 µM; in the experiment on HOP-18 NSCLC, 65.8 µM; in the experiment on LXFL 529 NSCLC, over 100 µM; with DLD-1 colon, over 100 µM.
